# Where a SMILES comes first, the peptide text is derived from it. The star is where a group is joined. Cbz = O=C(OCc1ccccc1)*; CH2F = FC*
# How the values were obtained:
# Assay type in all cases: biochemical
# Conditions in all cases: continuous assay 60 min, reaction initiated by adding enzyme
# MCH-5 = MCH-5 (Homo sapiens, UniProt Q14790); assay: Dissociation constant Ki and irreversible rate constant k3 for irreversible inhibitors, Mch5
# Description: (§1) For the irreversible inhibition of a ICE/ced-3 Family Protease enzyme with a competitive irreversible inhibitor; using the model represented by the following formulas: […]
# (§2) The product formation at time t may be expressed as:
# (§3) [formula] where E, I, EI and E-I denote the active enzyme, inhibitor, non-covalent enzyme-inhibitor complex and covalent enzyme-inhibitor adduct, respectively. The Ki value is the overall dissociation constant of the reversible binding steps, and k3 is the irreversible rate constant. The [S] and Ks values are the substate concentration and dissociation constant of the substrate bound to the enzyme, respectively. [E]^T is the total enzyme concentration.
# (§4) The above equations were used to determine the Ki and k3 values of a given inhibitor bound to a ICE/ced-3 family protease. Thus, a continuous assay was run for sixty minutes at various concentrations of the inhibitor and the substrate. The assay was formulated essentially the same as described above for generating the data in Table 1, except that the reaction was initiated by adding the enzyme to the substrate-inhibitor mixture. The Ki and k3 values were obtained by simulating the product AMC formation as a function of time according to Equation 1.
# (§5) The reference compound for this assay was Cbz-ValAlaAsp-CH2F and the values are denoted in Table 2 as “Reference”. The Ki values in Table 2 are in micromolar (μM). The k3/Ki values are in moles^−1 seconds^−1 (M^−1s^−1).
# MCH-2 = target: T1, MCH-2 (Homo sapiens, UniProt P55212); assay: Dissociation constant Ki and irreversible rate constant k3 for irreversible inhibitors, Mch2
# T1 sequence (P55212 24-179 limits assumed): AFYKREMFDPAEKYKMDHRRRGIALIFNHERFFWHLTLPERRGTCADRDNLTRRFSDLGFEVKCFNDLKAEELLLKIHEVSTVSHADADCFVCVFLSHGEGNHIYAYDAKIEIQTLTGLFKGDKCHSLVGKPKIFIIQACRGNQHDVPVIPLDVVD
# T1 sequence (P55212 194-293 limits assumed): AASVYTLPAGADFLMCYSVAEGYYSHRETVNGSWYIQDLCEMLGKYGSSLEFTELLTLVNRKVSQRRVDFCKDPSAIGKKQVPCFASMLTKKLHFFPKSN
# Description: as §1, §2, §3, §4, §5
# mICE = target: T2, mICE (Mus musculus, UniProt P29452); assay: Dissociation constant Ki and irreversible rate constant k3 for irreversible inhibitors, ICE
# T2 sequence (P29452 123-296 limits assumed): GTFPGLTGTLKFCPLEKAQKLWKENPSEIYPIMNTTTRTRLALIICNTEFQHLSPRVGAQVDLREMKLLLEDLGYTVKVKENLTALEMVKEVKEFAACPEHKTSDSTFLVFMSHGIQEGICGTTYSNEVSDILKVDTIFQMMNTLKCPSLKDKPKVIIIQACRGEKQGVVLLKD
# T2 sequence (P29452 315-402 limits assumed): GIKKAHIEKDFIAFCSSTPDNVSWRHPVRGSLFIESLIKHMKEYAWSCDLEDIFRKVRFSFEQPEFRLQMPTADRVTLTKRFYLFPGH
# Description: as §1, §2, §3, §4, §5
# CPP32 = target: T3, CPP32 (Homo sapiens, UniProt P42574); assay: Dissociation constant Ki and irreversible rate constant k3 for irreversible inhibitors, CPP32
# T3 sequence (P42574 29-175 limits assumed): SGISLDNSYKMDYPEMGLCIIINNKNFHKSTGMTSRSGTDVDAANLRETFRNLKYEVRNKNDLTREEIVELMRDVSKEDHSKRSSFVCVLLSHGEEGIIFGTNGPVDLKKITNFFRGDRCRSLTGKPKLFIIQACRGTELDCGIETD
# T3 sequence (P42574 176-277 limits assumed): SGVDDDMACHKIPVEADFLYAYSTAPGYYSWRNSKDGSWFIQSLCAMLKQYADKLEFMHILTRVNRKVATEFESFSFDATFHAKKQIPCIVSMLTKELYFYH
# Description: as §1, §2, §3, §4, §5
# Chain of MCH-5 (Q14790 217-374 limits assumed, species assumed): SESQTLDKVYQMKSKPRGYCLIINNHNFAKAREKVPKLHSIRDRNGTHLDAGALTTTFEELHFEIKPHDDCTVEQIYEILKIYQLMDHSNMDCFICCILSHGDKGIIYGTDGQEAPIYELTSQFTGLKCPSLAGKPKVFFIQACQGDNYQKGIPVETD
# Chain of MCH-5 (Q14790 385-479 limits assumed, species assumed): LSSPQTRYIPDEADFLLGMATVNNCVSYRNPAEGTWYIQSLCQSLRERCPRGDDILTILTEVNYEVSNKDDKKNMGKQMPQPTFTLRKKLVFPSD
SMILES,Ki (MCH-5),MCH-5 k3/Ki (MCH-5),Ki (MCH-2),MCH-2 k3/Ki (MCH-2),Ki (mICE),mICE k3/Ki (mICE),CPP32 k3/Ki (CPP32),Ki (CPP32)
Cc1nnc(SCC(=O)[C@H](CC(=O)O)NC(=O)[C@@H](NC(=O)COc2cccc3ccccc23)C(C)C)s1 [Example 128],4480 nM,0 M⁻¹ s⁻¹,2410 nM,83 M⁻¹ s⁻¹,213 nM,"5,480 M^−1s^−1","5,240 M^−1s^−1",254 nM
CC(C)C[C@H](NC(=O)COc1c(C(=O)O)ccc2ccccc12)C(=O)N[C@@H](CC(=O)O)C(=O)COc1c(F)c(F)cc(F)c1F [Example 167],126 nM,"13,600 M^−1s^−1",42 nM,"52,500 M^−1s^−1",501 nM,"21,300 M^−1s^−1","56,200 M^−1s^−1",89 nM
CCCCCCP(=O)(OCC(=O)[C@H](CC(=O)O)NC(=O)[C@@H](NC(=O)COc1cccc2ccccc12)C(C)C)c1ccc(F)cc1 (stereo partly drawn) [Example 109],219 nM,"4,070 M^−1s^−1",119 nM,"16,800 M^−1s^−1",453 nM,"15,500 M^−1s^−1","48,300 M^−1s^−1",136 nM
CC(C)[C@H](NC(=O)COc1cccc2ccccc12)C(=O)N[C@@H](CC(=O)O)C(=O)COc1c(-c2ccccc2)oc2ccccc2c1=O [Example 115],4670 nM,0 M⁻¹ s⁻¹,54 nM,0 M⁻¹ s⁻¹,324 nM,"8,740 M^−1s^−1","127,000 M^−1s^−1",46 nM
CC(C)[C@H](NC(=O)COc1cccc2ccccc12)C(=O)N[C@@H](CC(=O)O)C(=O)COc1c(F)cccc1F [Example 71],120 nM,"9,100 M^−1s^−1",38 nM,"9,980 M^−1s^−1",193 nM,"53,900 M^−1s^−1","200,000 M^−1s^−1",39 nM
CC(C)[C@H](NC(=O)CCOc1cccc2ccccc12)C(=O)N[C@@H](CC(=O)O)C(=O)COc1cc(C(F)(F)F)n(-c2ccccc2)n1 [Example 159],10700 nM,86 M⁻¹ s⁻¹,113 nM,"15,000 M^−1s^−1",1370 nM,"4,580 M^−1s^−1","11,700 M^−1s^−1",1180 nM
CC(C)[C@H](NC(=O)COc1cccc2ccccc12)C(=O)N[C@@H](CC(=O)O)C(=O)COc1cc(F)c(F)cc1F [Example 77],1500 nM,670 M⁻¹ s⁻¹,526 nM,630 M⁻¹ s⁻¹,262 nM,"11,500 M^−1s^−1","24,400 M^−1s^−1",123 nM
C[C@H](NC(=O)COc1ccc2ccccc2c1)C(=O)NC(CC(=O)O)C(=O)COc1c(F)c(F)cc(F)c1F (stereo partly drawn) [Example 176],1160 nM,684 M⁻¹ s⁻¹,1260 nM,"1,330 M^−1s^−1",480 nM,"11,100 M^−1s^−1","4,330 M^−1s^−1",3080 nM
Cc1cc(OCC(=O)[C@H](CC(=O)O)NC(=O)[C@@H](NC(=O)COc2cccc3ccccc23)C(C)C)cc(=O)o1 [Example 111],2870 nM,170 M⁻¹ s⁻¹,2160 nM,230 M⁻¹ s⁻¹,308 nM,"6,500 M^−1s^−1","21,900 M^−1s^−1",220 nM
CC(C)[C@H](NC(=O)COc1cccc2ccccc12)C(=O)N[C@@H](CC(=O)O)C(=O)COP(C)(=O)c1ccc(F)cc1 (stereo partly drawn) [Example 108],105 nM,"9,890 M^−1s^−1",37 nM,"60,400 M^−1s^−1",147 nM,"37,900 M^−1s^−1","140,000 M^−1s^−1",41 nM
"O=C(O)CC(NC(=O)[C@@H]1Cc2ccccc2N1C(=O)COc1cccc2ccccc12)C(=O)CF (stereo partly drawn) [Example 61, (2′S,3RS)-3-[N-((1-Naphthyloxy)Acetyl)Indoline-2′-Carbonyl]Amino-5-Fluoro-4-Oxopentanoic Acid]",217 nM,"10,100 M^−1s^−1",,,148 nM,"93,200 M^−1s^−1","28,300 M^−1s^−1",360 nM
O=C(O)CC(NC(=O)[C@@H]1Cc2ccccc2CN1C(=O)COc1cccc2ccccc12)C(=O)CF (mixture of isomers) [Example 60],467 nM,"5,780 M^−1s^−1",,,373 nM,"33,500 M^−1s^−1","8,440 M^−1s^−1",758 nM

# Now those with a lower Ki (MCH-5), led by results:
Ki (MCH-5),MCH-5 k3/Ki (MCH-5),Ki (MCH-2),MCH-2 k3/Ki (MCH-2),Ki (mICE),mICE k3/Ki (mICE),CPP32 k3/Ki (CPP32),Ki (CPP32),SMILES
25 nM,"59,300 M^−1s^−1",38 nM,"39,700 M^−1s^−1",63 nM,"143,000 M^−1s^−1","351,000 M^−1s^−1",38 nM,CC(C)[C@H](NC(=O)COc1cccc2ccccc12)C(=O)N[C@@H](CC(=O)O)C(=O)COP(=O)(c1ccccc1)c1ccccc1 [Example 103]
59 nM,"32,300 M^−1s^−1",57 nM,"64,400 M^−1s^−1",1090 nM,"8,280 M^−1s^−1","59,300 M^−1s^−1",209 nM,CC(C)[C@H](NC(=O)COc1ccc2ccccc2c1)C(=O)NC(CC(=O)O)C(=O)CF (mixture of isomers) [Example 54]
18 nM,"83,300 M^−1s^−1",594 nM,"2,950 M^−1s^−1",15 nM,"214,000 M^−1s^−1","12,200 M^−1s^−1",820 nM,"CC(NC(=O)C(NC(=O)OCc1ccccc1)C(C)C)C(=O)NC(CC(=O)O)C(=O)CF (stereo not drawn) [refer., Cbz-ValAlaAsp-CH2F, reference compound] (Cbz-Val-Ala-Asp-CH2F; configuration not given here)"
34 nM,"30,200 M^−1s^−1",6 nM,"78,900 M^−1s^−1",91 nM,"77,500 M^−1s^−1","268,000 M^−1s^−1",42 nM,CC(C)[C@H](NC(=O)COc1cccc2ccccc12)C(=O)N[C@@H](CC(=O)O)C(=O)COc1c(F)c(F)cc(F)c1F [Example 79]
48 nM,"27,800 M^−1s^−1",21 nM,"187,000 M^−1s^−1",66 nM,"106,000 M^−1s^−1","424,000 M^−1s^−1",14 nM,CC(C)[C@H](NC(=O)COc1cccc2ccccc12)C(=O)N[C@@H](CC(=O)O)C(=O)COP(=O)(Cc1ccccc1)c1ccccc1 (stereo partly drawn) [Example 107]
85 nM,"12,800 M^−1s^−1",53 nM,"50,000 M^−1s^−1",324 nM,"15,400 M^−1s^−1","105,000 M^−1s^−1",138 nM,CC(C)C(NC(=O)COc1ccccc1-c1ccccc1)C(=O)NC(CC(=O)O)C(=O)CF (stereo not drawn) [Example 56]
59 nM,"15,500 M^−1s^−1",37 nM,"50,200 M^−1s^−1",133 nM,"50,600 M^−1s^−1","151,000 M^−1s^−1",54 nM,CC(C)[C@H](NC(=O)COc1cccc2ccccc12)C(=O)N[C@@H](CC(=O)O)C(=O)COP(C)(=O)c1ccccc1 (stereo partly drawn) [Example 104]
12 nM,"17,000 M^−1s^−1",12 nM,"56,900 M^−1s^−1",79 nM,"52,100 M^−1s^−1","725,000 M^−1s^−1",12 nM,CC(C)[C@H](NC(=O)COc1cccc2ccccc12)C(=O)N[C@@H](CC(=O)O)C(=O)COC(=O)c1c(Cl)cccc1Cl [Example 63]

# — patent US7157430B2, “(Substituted)acyl dipeptidyl inhibitors of the ICE/CED-3 family of cysteine proteases” (Idun Pharmaceuticals, Inc., priority 1998, dated 2007)
